According to US20060089371A1, “Phenyl or heteroaryl amino alkane derivatives as ip receptor antagonist” (Bayer HealthCare AG, priority 2002, published 2006):
pIC50: −log10 of the molar value. Where a name gives a salt, the structure may show the parent alone.

Test system: not given
Assay: not given
Settings: not given

With O=C(O)[C@@H](Cc1ccccc1)Nc1cc(-c2ccc(OCC3CC3)cc2)ncn1 [Example 1-2, N-{6-[4-(Cyclopropylmethoxy)phenyl]pyrimidin-4-yl}-D-phenylalanine] the melting point was 180 to 183 °C (dec.).
For O=C(Nc1ccccc1)c1ccc(-c2cc(NC(Cc3ccccc3)C(=O)O)ncn2)cc1 (stereo not shown) [Example 1-5], the melting point was 228 to 231 °C (dec.).

First: O=C(O)[C@@H](Cc1ccccn1)Nc1cc(-c2ccc(OCc3ccccc3)cc2)ncn1 [Example 1-4, N-{6-[4-(benzyloxy)phenyl]pyrimidin-4-yl}-3-pyridin-2-yl-D-alanine]
Second: O=C(O)[C@H](Cc1ccccc1)Nc1cc(-c2ccc(Cc3ccccc3)cc2)ncn1 [Example 18-1, N-[6-(4-Benzylphenyl)pyrimidin-4-yl]phenylalanine]
The melting point of the first is higher: 142 °C for the first, 116 to 118 °C for the second.

O=C(O)C(Cc1ccccc1)Nc1cc(-c2ccc(CCCc3ccccc3)cc2)ncn1 (stereo not shown) [Example 1-6] gave a melting point of 112 to 114 °C.

Target: T1, IP receptor (Homo sapiens, UniProt P43119)
T1 construct: one million cells in 160 μl aliquot of cell suspension were put in a well of 96 well plate; host or cells: HEL 92.1.7 human erythroleukemia cells (whole cells)
T1 sequence (P43119 whole entry): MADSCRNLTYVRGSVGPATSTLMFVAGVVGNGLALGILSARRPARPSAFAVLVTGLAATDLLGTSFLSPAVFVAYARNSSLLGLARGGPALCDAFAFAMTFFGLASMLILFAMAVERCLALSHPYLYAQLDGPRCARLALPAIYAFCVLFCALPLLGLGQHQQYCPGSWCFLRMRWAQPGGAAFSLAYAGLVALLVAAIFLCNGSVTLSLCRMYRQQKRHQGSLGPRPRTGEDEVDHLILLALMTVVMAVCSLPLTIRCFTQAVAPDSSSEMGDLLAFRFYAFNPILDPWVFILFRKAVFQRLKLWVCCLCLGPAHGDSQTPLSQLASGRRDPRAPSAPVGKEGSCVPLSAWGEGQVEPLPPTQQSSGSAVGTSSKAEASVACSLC
Assay: IP receptor binding/cAMP in HEL cells ([3H]-iloprost binding, Assay 1; iloprost-induced cAMP production, Assay 2)
Settings: compounds of about 40 to 90% purity, read-out: In vitro activity grade (IC50 class)
Description: [Measurement of the [^3H]-iloprost Binding to HEL Cells] (Assay 1)
A human erythloleukemia cell line, HEL 92.1.7, was purchased from American Type Culture Correction and maintained in RPMI-1640 medium (Gibco BRL) supplemented with 10% fetal calf serum (FCS), 2 mM glutamine, 4.5 g/L glucose, 10 mM Hepes, 1 mM sodium pyruvate, 100 U/ml penicillin, and 100 μg/ml streptomycin in a humidified 5% CO2 atmosphere at 37° C. Cells were collected with centrifugation and washed with binding assay buffer (BAB: 50 mM Tris-HCl, 5 mM MgCl2 (pH 7.5)). Cells were suspended at the density of 6.25×10^6 cells/ml in BAB, and one million cells in 160 μl aliquot of cell suspension were put in a well of 96 well plate (Falcon). Then, 20 μl of compound solution, 100 μM of iloprost (for non-specific binding), or buffer alone (total binding), diluted with 1% DMSO in BAB was added. Finally, another 20 μl containing [^3H]-iloprost (0.02 μCi, 0.5-1 pmol) in BAB was added and incubated at room temperature for 30 min with a gentle shaking. Cell suspension was then transferred to a well of MultiScreen plate with GF/C glass filters (Millipore) to harvest cells. Cells were washed twice with 200 μl of ice-cold BAB and the plate was kept at 55° C. for 30 min to dry filters. The filter in the well was punched out to a counting tube and 2 ml of Ultima Gold XR (Packard) was added. [^3H]-radio activity in the filter was measured by a liquid scintillation counter (Beckman, USA).
[Iloprost-Induced cAMP Production Assay in HEL Cells] (Assay 2)
HEL cells were collected with centrifugation and washed with cAMP assay buffer (CAB: Hank's balanced salt solution, 17 mM Hepes, 0.1% bovine serum albumin, 1 mM IBMX, 0.4% DMSO, and 1 mM L-ascorbic acid sodium salt (pH 7.4)). Cells were suspended at the density of 2.5×10^5 cells/ml in CAB, and twenty thousand cells in 80 μl aliquot of cell suspension were put in a well of 96 well plate (Falcon). Then, 10 μl of compound solution diluted with 1% DMSO in CAB or buffer alone was added. The plate was incubated at 37° C. for 30 min. Then, another 10 μl containing 100 nM iloprost in CAB or buffer alone was added and further incubated at 37° C. for 30 min. cAMP content in the well was measured by a cAMP ELISA kit (Applied Biosystems, USA).
The data corresponds to the compounds as yielded by solid phase synthesis and thus to levels of purity of about 40 to 90%. For practical reasons, the compounds are grouped in three classes of activity as follows: IC50=A<0.1 μM≦B<1 μM≦C

O=C(O)[C@@H](Cc1ccccc1)Nc1cc(-c2ccc(OCc3ccccc3)cc2)ncn1 [Example 1-1, N-{6-[4-(Benzyloxy)phenyl]pyrimidin-4-yl}-D-phenylalanine] and O=C(O)[C@H](Cc1ccccc1)Nc1cc(-c2ccc(COc3ccccc3)cc2)ncn1 [Example 20-1, N-{6-[4-(Phenoxymethyl)phenyl]pyrimidin-4-yl}phenylalanine] cannot be ordered by pIC50: over 7.00 for the first, over 7.00 for the second.

O=C(O)[C@@H](Cc1ccccc1)Nc1cc(-c2ccc(OCC3CC3)cc2)ncn1 [Example 1-2, N-{6-[4-(Cyclopropylmethoxy)phenyl]pyrimidin-4-yl}-D-phenylalanine] and CCOc1ccc(-c2cc(NC(Cc3ccccc3)C(=O)O)ncn2)cc1 (stereo not shown) [Example 2-18] cannot be ordered by pIC50: over 7.00 for the first, over 7.00 for the second.

CCCC[C@@H](Nc1cc(-c2ccc(OCc3ccccc3)cc2)ncn1)C(=O)O [Example 1-3, N-{6-[4-(benzyloxy)phenyl]pyrimidin-4-yl}-D-norleucine hydrochloride] and CCCOc1ccc(-c2cc(NC(Cc3ccccc3)C(=O)O)ncn2)cc1 (stereo not shown) [Example 2-19] cannot be ordered by pIC50: over 7.00 for the first, over 7.00 for the second.

O=C(O)[C@@H](Cc1ccccn1)Nc1cc(-c2ccc(OCc3ccccc3)cc2)ncn1 [Example 1-4, N-{6-[4-(benzyloxy)phenyl]pyrimidin-4-yl}-3-pyridin-2-yl-D-alanine] and COc1cccc(COc2ccc(-c3cc(NC(Cc4ccccn4)C(=O)O)ncn3)cc2)c1 (stereo not shown) [Example 2-36] cannot be ordered by pIC50: over 7.00 for the first, over 7.00 for the second.

Compared with O=C(Nc1ccccc1)c1ccc(-c2cc(NC(Cc3ccccc3)C(=O)O)ncn2)cc1 (stereo not shown) [Example 1-5], O=C(O)C(Cc1ccccc1)Nc1cc(-c2ccc(CNc3ccccc3)cc2)ncn1 (stereo not shown) [Example 19-1, N-{6-[4-(Anilinomethyl)phenyl]pyrimidinyl}phenylalanine] is higher in pIC50: 6.00 to 7.00 for the first, over 7.00 for the second.

O=C(O)C(Cc1ccccc1)Nc1cc(-c2ccc(CCCc3ccccc3)cc2)ncn1 (stereo not shown) [Example 1-6] and O=C(O)C(Cc1ccccc1)Nc1cc(-c2ccc(CCc3ccccc3)cc2)ncn1 (stereo not shown) [Example 8-1, N-{6-[4-(2-Phenylethyl)phenyl]pyrimidinyl}phenylalanine] cannot be ordered by pIC50: over 7.00 for the first, over 7.00 for the second.

O=C(O)C(Cc1ccccc1)Nc1cc(-c2ccc(OCc3ccccc3)cc2)nc(Cl)n1 (stereo not shown) [Example 1-21] and Nc1nc(NC(Cc2ccccc2)C(=O)O)cc(-c2ccc(OCc3ccccc3)cc2)n1 (stereo not shown) [Example 1-38] cannot be ordered by pIC50: over 7.00 for the first, over 7.00 for the second.

First: O=C(O)C(Cc1c[nH]c2ccccc12)Nc1cc(-c2ccc(OCc3ccccc3)cc2)ncn1 (stereo not shown) [Example 1-37]
Second: O=C(O)C(Cc1ccccc1)Nc1cc(-c2ccc(Oc3ccc4ccccc4n3)cc2)ncn1 (stereo not shown) [Example 12-6]
The pIC50 of the first is higher: over 7.00 for the first, 6.00 to 7.00 for the second. The first is the more potent here.

O=C(O)C(Cc1ccccc1)Nc1cc(-c2ccccc2)ncn1 (stereo not shown) [Example 1-51] and O=C(O)C(Cc1ccccc1)Nc1cc(-c2ccc(F)cc2)ncn1 (stereo not shown) [Example 1-52] fall in the same range of pIC50: 6.00 to 7.00 for the first, 6.00 to 7.00 for the second.

O=C(O)C(Cc1ccccn1)Nc1cc(-c2ccc(-c3ccccc3)cc2)ncn1 (stereo not shown) [Example 1-53] and COc1ccc(-c2ccc(-c3cc(N[C@@H](Cc4ccccc4)C(=O)O)ncn3)cc2)cc1 [Example 11-1, N-[6-(4′-Methoxybiphenyl-4-yl)pyrimidin-4-yl]phenylalanine] cannot be ordered by pIC50: over 7.00 for the first, over 7.00 for the second.

First: CSc1nc(NC(Cc2ccccc2)C(=O)O)cc(-c2ccc(OCc3ccccc3)cc2)n1 (stereo not shown) [Example 1-54]
Second: Cn1nc(-c2ccc(OCc3ccccc3)cc2)cc1NC(Cc1ccccc1)C(=O)O (stereo not shown) [Example 28-3]
The pIC50 of the first is higher: 6.00 to 7.00 for the first, under 6.00 for the second. The first is the more potent here.

O=C(O)C(Cc1ccccc1)Nc1cc(-c2ccc(Cl)cc2)ncn1 (stereo not shown) [Example 1-55] and O=C(O)[C@H](Cc1ccccc1)Nc1cc(-c2ccc(NCC3CC3)cc2)ncn1 [Example 16-1, N-(6-{4-[(Cyclopropylmethyl)amino]phenyl}pyrimidin-4-yl)phenylalanine] fall in the same range of pIC50: 6.00 to 7.00 for the first, 6.00 to 7.00 for the second.

COc1cc(COc2ccc(-c3cc(NC(Cc4ccccn4)C(=O)O)ncn3)cc2)cc(OC)c1 (stereo not shown) [Example 2-37] and N#Cc1ccnc(Oc2ccc(-c3cc(N[C@@H](Cc4ccccc4)C(=O)O)ncn3)cc2)c1 [Example 12-1, N-(6-{4-[(4-cyanopyridin-2-yl)oxy]phenyl}pyrimidin-4-yl)phenylalanine] cannot be ordered by pIC50: over 7.00 for the first, over 7.00 for the second.

Compared with O=C(O)C(Cc1ccccc1)Nc1cc(-c2ccc(OCC3CC3)c(F)c2)ncn1 (stereo not shown) [Example 2-41], O=C(O)C(Cc1ccccn1)Nc1cc(-c2ccc(OCC3CC3)c(F)c2)ncn1 (stereo not shown) [Example 2-43] is lower in pIC50: over 7.00 for the first, 6.00 to 7.00 for the second.

Compared with CCCCC(Nc1cc(-c2ccc(OCC3CC3)c(F)c2)ncn1)C(=O)O (stereo not shown) [Example 2-42], Cc1ccc(C#N)c(Oc2ccc(-c3cc(NC(Cc4ccccc4)C(=O)O)ncn3)cc2)n1 (stereo not shown) [Example 12-4] is lower in pIC50: 6.00 to 7.00 for the first, under 6.00 for the second. The first is the more potent here.

First: O=C(O)[C@H](Cc1ccccc1)Nc1ccnc(-c2ccc(OCc3ccccc3)cc2)n1 [Example 3-1, N-{2-[4-(Benzyloxy)phenyl]-4-pyrimidinyl}phenylalanine]
Second: O=C(O)[C@H](Cc1ccccc1)Nc1nccc(-c2ccc(OCc3ccccc3)cc2)n1 [Example 29-1, N-{4-[4-(Benzyloxy)phenyl]pyrimidin-2-yl}phenylalanine]
The pIC50 of the first is lower: 6.00 to 7.00 for the first, over 7.00 for the second.

O=C(O)C(Cc1cccc(OCCN2CCOCC2)c1)Nc1cc(-c2ccc(OCc3ccccc3)cc2)ncn1 (stereo not shown) [Example 4-2] and O=C(O)[C@H](Cc1ccc(NC2=NCCN2)cc1)Nc1cc(-c2ccc(OCc3ccccc3)cc2)ncn1 [Example 6-1, N-{6-[4-(Benzyloxy)phenyl]pyrimidin-4-yl}-4-(4,5-dihydro-1H-imidazol-2-yl-amino)phenylalanine] cannot be ordered by pIC50: over 7.00 for the first, over 7.00 for the second.

First: O=C(O)C(Cc1ccccc1)Nc1cc(-c2ccc(-c3ccc(-c4ccccc4)cc3)cc2)ncn1 (stereo not shown) [Example 11-8]
Second: O=C(O)C(Cc1ccccc1)Nc1cc(-c2ccc(NCc3ccccc3)cc2)ncn1 (stereo not shown) [Example 13-1, N-{6-[4-Benzylamino)phenyl]pyrimidin-4-yl}phenylalanine hydrochloride]
The pIC50 of the first is lower: under 6.00 for the first, over 7.00 for the second.

First: O=C(O)C(Cc1ccccc1)Nc1cc(-c2ccc(Oc3ncc(C(F)(F)F)cc3Cl)cc2)ncn1 (stereo not shown) [Example 12-2]
Second: O=C(O)C(Cc1ccccc1)Nc1cc(-c2ccc(Oc3ccc(C(F)(F)F)cn3)cc2)ncn1 (stereo not shown) [Example 12-5]
The pIC50 of the first is lower: under 6.00 for the first, 6.00 to 7.00 for the second.

Compared with O=C(O)C(Cc1ccccc1)Nc1cc(-c2ccc(Oc3cc(C(F)(F)F)ncn3)cc2)ncn1 (stereo not shown) [Example 12-3], O=C(O)[C@H](Cc1ccccc1)Nc1cc(-c2ccc(NS(=O)(=O)c3ccccc3)cc2)ncn1 [Example 15-1, N-(6-{4-[(Phenylsulfonyl)amino]phenyl}pyrimidin-4-yl)phenylalanine] is lower in pIC50: 6.00 to 7.00 for the first, under 6.00 for the second.

Compared with O=C(O)C(Cc1ccccc1)Nc1cc(-c2ccc(CN3Cc4ccccc4C3)cc2)ncn1 (stereo not shown) [Example 19-3], O=C(O)C(Cc1ccccc1)Nc1cc(-c2ccc(OCc3ccccc3)cc2)on1 (stereo not shown) [Example 28-2] is higher in pIC50: 6.00 to 7.00 for the first, over 7.00 for the second.

First: c1ccc(COc2ccc(-c3cc(NC(Cc4ccccn4)c4nnn[nH]4)ncn3)cc2)cc1 (stereo not shown) [Example 27-2]
Second: O=C(O)C(Cc1ccccc1)Nc1nc(-c2ccc(OCc3ccccc3)cc2)cs1 (stereo not shown) [Example 28-4]
The pIC50 of the first is higher: 6.00 to 7.00 for the first, under 6.00 for the second. The first is the more potent here.
